In patent US12553889B2, “Small molecules targeting the intrinsically disordered structural ensemble of α-synuclein protect against diverse α-synuclein mediated dysfunctions” (The Regents of the University of California, priority 2019, dated 2026):
Entries after “also recorded” stand apart in the source; their conditions may differ.

Assays:
αSyn = αSyn (Homo sapiens, UniProt P37840); assay: Cellular oligomerization assay (split Gaussia luciferase complementation in H4 cells); assay type: cell-based; details: maximal concentrations not showing toxicity, 0.3% DMSO
Procedure: H4 neuroglioma cells (HTB-148; ATCC) were passaged in DME containing 10% fetal calf serum (FCS). They were plated into 10 cm dishes at 7.5×10^5 cells per dish and the following day transfected with DNA and Fugene (Promega, Madison, WI) at a ratio of 3:1 with 7 μg each of Syn-Luc1 (S1) and Syn-Luc2 (S2) plasmids, which are also referred to as syn-hGluc(1) and syn-hGLuc(2) respectively (see Outeiro, T. F. et al. Plos One 3, e1867, incorporated herein by reference in entirety) and 3 μg of red firefly expressing plasmid (pCMV-Red firefly Luc, ThermoFisher, Waltham, MA) per dish according to the manufacturer's directions. S1 and S2 plasmids express αSyn containing split Gaussia luciferase with either the N-terminal fragment (S1) or C-terminal fragment (S2) attached to the C-terminus of αSyn. After 24 hours, the DNA containing media was removed and cells were fed fresh DME media containing 10% FCS. […] Gaussia luciferase activity was measured in the dark 0.1 sec after injection of 100 μl/well of […] coelenterazine, substrate (NanoLight, Pinetop, AZ) using a 2 sec integration on a Veritas Microplate Luminometer (Promega, Madison, WI). The cells were subsequently assayed for red Firefly activity using the ONE-Glo™ Luciferase Assay System kit (Promega, Madison, WI) on a Spectramax M5 (Molecular Devices, San Jose, CA) plate reader as a normalization measure. […]

[1] = test system: primary rat embryonic midbrain neurons; assay: Toxicity to primary midbrain dopaminergic neurons; assay type: cell-based; details: compound alone, 60 μM
Procedure: (§1) Primary midbrain cultures were prepared and dopaminergic neuronal viability in the presence and absence of αSyn was assessed as previously described and repeated herein. Primary midbrain cultures were prepared from embryonic day 17 embryos of Sprague-Dawley rats using methods reviewed and approved by the Purdue Animal Care and Use Committee as described previously. After dissection, the cells were plated into a poly-L-lysine-treated 48-well plate at a density of 163,500 cells per well. Four days later, the cells were treated with cytosine arabinofuranoside (AraC) (20 μM) for 48 hours to inhibit the growth of glial cells. The cultures were used for measurements of dopaminergic neuron viability at 7 days in vitro. […] In order to determine the viability of dopaminergic neurons, MAP2- and TH-positive neurons were counted in 10 to 15 randomly chosen observation fields in a blinded manner using a Nikon TE2000-U inverted fluorescence microscope (Nikon Instruments, Melville NY) with a 20× objective. In the control conditions, and in conditions where the compound was neuroprotective, typically 500 to 1,300 MAP2-positive neurons were counted, a range that corresponds to 20 to 50 TH-positive neurons. The data were expressed as the ratio of the TH-positive neurons to the MAP2-positive neurons. […]

A53T αSyn = assay: Dopaminergic neuron viability assay, A53T αSyn adenovirus transduced primary midbrain cultures; assay type: cell-based, rat
Procedure: as §1

## CNC(=O)c1cc(O)ccc1N [Compound 576755, 2-amino-5-hydroxy-N-methylbenzamide]
αSyn
  impact on cellular αSyn oligomerization: reproducibly reduced cellular oligomers; also recorded: reduces αSyn oligomerization
[1]
  toxic effect on primary dopaminergic neurons: no detectable toxic effect; also recorded: not toxic
A53T αSyn; 10 μM
  effect on A53T αSyn neurotoxicity (TH-positive/MAP2-positive neurons): a trend towards a similar inhibitory effect
A53T αSyn; 60 μM
  effect on A53T αSyn neurotoxicity (TH-positive/MAP2-positive neurons): suppressed A53T αSyn neurotoxicity; also recorded: alleviates loss of dopaminergic neurons
